# Reference: patent US20240409536A1, “COMPOUNDS AND METHODS FOR MODULATING SPLICING” (REMIX THERAPEUTICS INC., priority 2021, published 2024)
# Read-outs that look alike come from different tables or passages of the source.
# Tests used:
# [1] = system: HTT mRNA; experiment: Gene panel canonical junction qPCR assay, HTT CJ mRNA decrease; format: cell-based, human
# Protocol: (§1) Compounds described herein were used to modulate RNA transcript abundance in cells. The expression of a target mRNA was measured by detecting the formation of an exon-exon junction in the canonical transcript (CJ). A compound mediated exon-inclusion event was detected by observing an increase in formation of a new junction with an alternative exon (AJ). Real-time qPCR assays were used to detect these splicing switches and interrogate the potency of various compounds towards different target genes. A high-throughput real time quantitative PCR (RT-qPCR) assay was developed to measure these two isoforms of the mRNA (CJ and AJ) for exemplary genes, such as HTT, SMN2, and MYB, together with a control housekeeping gene, GAPDH or GUSB or PPIA, used for normalization. Briefly, the A673 or K562 cell line was treated with various compounds described herein (e.g., compounds of Formula (I), (I), or (III)). After treatment, the levels of the HTT, MYB, or SMN2 mRNA targets were determined from each sample of cell lysate by cDNA synthesis followed by qPCR.
# (§2) The data analysis was performed by first determining the ΔCt vs the housekeeper gene. This ΔCt was then normalized against the DMSO control (ΔΔCt) and converted to RQ (relative quantification) using the 2^(−ΔΔCt) equation. The RQ were then converted to a percentage response by arbitrarily setting an assay window of 3.5 and 4.0 ΔCt for HTT-CJ and MYB-CJ respectively and an assay window of 9 and 3 ΔCt for HTT-AJ and MYB-AJ in 96 well format (50,000 K562 cells/well and 15,000 A673 cells per well) and an assay window of 3 and 4 ΔCt for HTT-CJ and MYB-CJ respectively and an assay window of 5 and 3 ΔCt for HTT-AJ and MYB-AJ respectively in 384 well format (8,000 K562 cells/well example). […] The percentage response was then fitted to the 4 parametric logistic equation to evaluate the concentration dependence of compound treatment. The increase in AJ mRNA is reported as AC50 (compound concentration having […] in AJ increase) while the decrease in CJ mRNA levels is reported as IC50 (compound concentration having 50) response in CJ decrease).
# (§3) Additional studies were carried out for a larger panel of genes using the protocol provided above. The junction between flanking upstream and downstream exons was used to design canonical junction qPCR assays. At least one of the forward primer, reverse primer or the CY5-labeled 5′ nuclease probe (with 3′ quencher such as ZEN/Iowa Black FQ) was designed to overlap with the exon junction to capture the CJ mRNA transcript. BLAST was used to confirm the specificity of the probeset and parameters such as melting temperature, GC content, amplicon size, and primer dimer formation are considered during their design. Data for the decrease in CJ mRNA levels for four exemplary genes (HTT, SMN2, MYB, and Target C) analyzed in this panel are reported as IC50 (compound concentration having […] in CJ decrease).
# (§4) A summary of the results from the panel is illustrated in Tables 5A and 51B, wherein “A” represents an IC50 of less than 100 nM; “B” represents an IC50 of between 100 nM and 1 μM; and “C” represents an IC50 of between 1 μM and 10 μM; and “D” represents an IC50 of greater than 10 μM.
# [2] = system: MYB mRNA; experiment: Gene panel canonical junction qPCR assay, MYB CJ mRNA decrease; format: cell-based, human
# Protocol: as §1, §2, §3, §4
# [3] = system: SMN2 mRNA; experiment: Gene panel canonical junction qPCR assay, SMN2 CJ mRNA decrease; format: cell-based, human
# Protocol: as §1, §2, §3, §4
# [4] = system: Target C mRNA; experiment: Gene panel canonical junction qPCR assay, Target C CJ mRNA decrease; format: cell-based; conditions: Homo sapiens, decrease in CJ mRNA levels, read-out: Target C IC50
# Protocol: as §1, §2, §3, §4
# [5] = system: HTT mRNA; experiment: Splicing RT-qPCR assay, HTT canonical (CJ) and alternative (AJ) junction mRNA; format: cell-based; conditions: Homo sapiens, A673 or K562 cells, 24 hours
# Protocol: as §1
# (§5) • Cells-to-CT 1-step kit: ThermoFisher A25602, Cells-to-CT lysis reagent: ThermoFisher 4391851C, TaqMan™ Fast Virus 1-Step Master Mix: ThermoFisher 4444436 • GAPDH: VIC-PL, ThermoFisher 4326317E (Assay: Hs99999905_ml)—used for K562/suspension cell lines • GUSB: VIC-PL, ThermoFisher 4326320E (Assay: Hs99999908_ml)—used for K562/suspension cell lines • PPIA: VIC-PL, ThermoFisher 4326316E (Assay: Hs99999904_ml)—used for A673/adherent cell lines
# (§6) The A673 cell line was cultured in DMEM with 10% FBS. Cells were diluted with full growth media and plated in a 96-well plate (15,000 cells in 100 ul media per well). The plate was incubated at 37° C. with 5% CO2 for 24 hours to allow cells to adhere. An 11-point 3-fold serial dilution of the compounds was made in DMSO then diluted in media in an intermediate plate. Compounds were transferred from the intermediate plate to the cell plate with the top dose at a final concentration of 10 uM in the well. Final DMSO concentration was kept at or below 0.25%. The cell plate was returned to the incubator at 37° C. with 5% CO2 for an additional 24 hours.
# (§7) The K562 cell line was cultured in IMDM with 10% FBS. For K562, cells were diluted with full growth media and plated in either a 96-well plate (50,000 cells in 50 uL media per well) or a 384-well plate (8,000-40,000 cells in 45 uL media per well). An 11-point 3-fold serial dilution of the compounds were made in DMSO then diluted in media in an intermediate plate. Compound was transferred from the intermediate plate to the cell plate with the top dose at a final concentration of 10 uM in the well. Final DMSO concentration was kept at or below 0.25%. Final volume was 100 uL for 96-well plate and 50 uL for 384-well plate. The cell plate was then placed in an incubator at 37° C. with 5% CO2 for 24 hours.
# (§8) The cells were then gently washed with 50 uL-100 uL cold PBS before proceeding to addition of lysis buffer. 30 uL-50 uL of room temperature lysis buffer with DNAse I (and optionally RNAsin) was added to each well. Cells were shaken/mixed thoroughly at room temperature for 5-10 minutes for lysis to take place and then 3 uL-5 uL of room temperature stop solution was added and wells were shaken/mixed again. After 2-5 minutes, the cell lysate plate was transferred to ice for RT-qPCR reaction setup. The lysates could also be frozen at −80° C. for later use.
# (§9) In some cases, a direct lysis buffer was used. An appropriate volume of 3×lysis buffer (10 mM Tris, 150 mM NaCl, 1.5%-2.5% Igepal and 0.1-1 U/uL RNAsin, pH 7.4) was directly added to either K562 or A673 cells in media and mixed by pipetting 3 times. The plates were then incubated at room temperature with shaking/rocking for 20-50 minutes to allow for lysis to take place. After this time, the cell lysate plate was transferred to ice to set up for the RT-qPCR reactions. The lysates could also be frozen at −80° C. for later use. […]
# [6] = system: MYB mRNA; experiment: Splicing RT-qPCR assay, MYB canonical (CJ) and alternative (AJ) junction mRNA; format: cell-based; conditions: Homo sapiens, A673 or K562 cells, 24 hours
# Protocol: as §1, §5, §6, §7, §8, §9
# [7] = Homo sapiens, decrease in CJ mRNA levels, read-out: HTT IC50
# [8] = Homo sapiens, decrease in CJ mRNA levels, read-out: MYB IC50
# [9] = Homo sapiens, decrease in CJ mRNA levels, read-out: SMN2 IC50
# [10] = decrease in canonical junction mRNA
# [11] = increase in alternative junction mRNA
"IC50 [1, 7] [nM]","IC50 [2, 8] [nM]","IC50 [3, 9] [µM]",SMILES,also measured
–,–,–,Cc1cn2cc(NC(=O)c3sc(C4CCNCC4)cc3F)cc(F)c2n1 [Compound 650],"IC50 ([1]; decrease in CJ mRNA levels, read-out: HTT IC50): 1000 to 10000 nM; IC50 ([2]; decrease in CJ mRNA levels, read-out: MYB IC50): 100 to 1000 nM; IC50 ([3]; decrease in CJ mRNA levels, read-out: SMN2 IC50): > 10 µM"
> 10000,> 10000,< 0.1,Cc1nc2c(F)cc(NC(=O)c3sc(N4CCNC(C)C4)cc3F)cc2s1 (stereo not shown) [Compound 638],–
> 10000,> 10000,> 10,Cc1cn2cc(NC(=O)c3sc(C4CCNCC4)cc3F)nc2c(C)n1 [Compound 667],–
100 to 1000,1000 to 10000,1 to 10,Cc1cn2cc(NC(=O)c3sc(C4CCNCC4)cc3F)cc(Cl)c2n1 [Compound 654],–
1000 to 10000,100 to 1000,–,CCC1CN(c2cc(F)c(C(=O)Nc3cc(F)c4nc(C)cn4c3)s2)CCN1 (stereo not shown) [Compound 603],IC50 [4]: > 10 µM
> 10000,> 10000,> 10,Cc1cn2nc(NC(=O)c3sc(C4CCNCC4)cc3F)cc2c(C)n1 [Compound 664],–
100 to 1000,< 100,1 to 10,Cn1cc2ccc(NC(=O)c3sc(C4CCNCC4)cc3F)cc2n1 [Compound 655],–
100 to 1000,100 to 1000,–,Cc1cn2cc(NC(=O)c3sc([C@H]4CCN[C@@H](C)C4)cc3F)cc(F)c2n1 [Compound 590],IC50 [4]: 0.1 to 1 µM
1000 to 10000,100 to 1000,> 10,Cc1cn2cc(NC(=O)c3sc(C4CCNCC4)c(C#N)c3Cl)cc(F)c2n1 [Compound 670],–
> 10000,1000 to 10000,–,Cc1cn2cc(NC(=O)c3cc(F)c(C4CCNCC4)s3)cc(F)c2n1 [Compound 661],IC50 [4]: > 10 µM
> 10000,1000 to 10000,> 10,Cc1cn2cc(NC(=O)c3sc([C@@H]4CCN[C@H](C)C4)cc3F)cc(C(F)(F)F)c2n1 [Compound 668],–
–,–,–,Cc1cn2cc(NC(=O)c3ccc(N4CCN(C)C(C)C4)c4ccnnc34)cc(F)c2n1 (stereo not shown) [Compound 129],"IC50 [5, 10]: 1 to 10 µM; AC50 [5, 11]: 1 to 10 µM; IC50 [6, 10]: 100 to 1000 nM; AC50 [6, 11]: 100 to 1000 nM; IC50 ([1]; Homo sapiens, canonical junction qPCR, read-out: HTT IC50 (decrease in CJ mRNA levels)): 1000 to 10000 nM; IC50 ([2]; Homo sapiens, canonical junction qPCR, read-out: MYB IC50 (decrease in CJ mRNA levels)): 100 to 1000 nM; IC50 ([3]; Homo sapiens, canonical junction qPCR, read-out: SMN2 IC50 (decrease in CJ mRNA levels)): < 0.1 µM"
100 to 1000,100 to 1000,1 to 10,Cc1cn2cc(NC(=O)c3sc(C4CCNCC4)c(C)c3F)cc(F)c2n1 [Compound 649],–
1000 to 10000,100 to 1000,1 to 10,Cc1cn2cc(NC(=O)c3cc(Cl)c(C4CCNCC4)s3)cc(F)c2n1 [Compound 666],–
